In test [1] the target is memapsin 2 (Homo sapiens (Human), UniProt P56817). Put plainly: Inhibition of memapsin 2 catalytic activity toward fluorogenic substrate FS-2. The conditions noted are these: memapsin 2, pH 4, 37° C., 20 minutes pre-incubation, tight-binding model. The format is biochemical. As to the method: Inhibition of Memapsin 1, Memapsin 2, and Cathepsin D Catalytic Activity. A substrate peptide H3N-ELDLAVEFWHDR—CO2 (SEQ ID NO:1) (used for inhibition assay of memapsin 2, memapsin 1, and cathepsin D) was dissolved at 2 mg/mL in DMSO and diluted 1:100 in 0.1 M sodium acetate, pH 4.0 just prior to assay. Inhibitor dissolved in DMSO was diluted into 0.1 M sodium acetate, pH 4.0 (1:100 dilution). A 50 μL aliquot of the inhibitor solution in pH 4 buffer was combined with 150 μL of 0.1 M sodium acetate containing 100-200 nM of memapsin 1, memapsin 2, or cathepsin D. Following a pre-incubation at 37° C., the proteolytic assay was initated by addition of 50 μl of the substrate diluted into pH 4 buffer, and incubation continued at 37° C. Aliquots were removed at time intervals, and combined with an equal volume of MALDI-TOF matrix ([…] in acetone, 20 mg/mL) and immediately spotted in duplicate onto a stainless-steel MALDI sample plate. MALDI-TOF mass spectrometry was performed on a PE Biosystems Voyager DE instrument at the Molecular Biology Resource Center on campus. The instrument was operated at 25,000 accelerating volts in positive mode with a 150 ns delay. Ions with a mass-to-charge ratio (m/z) were detected in the range of 650-2000 atomic mass units. Data were analyzed by the Voyager Data Explorer module to obtain ion intensity data for mass species of substrates and corresponding products in a given mixture. Relative product formation was calculated as the ratio of signal intensity of the product to the sum of signal intensities of both product and the corresponding substrate. Relative product formed per unit time was obtained from non-linear regression analysis of the data representing the initial 15% formation of product using the model: 1−e^−kT where k was the relative hydrolytic rate constant and T was time in seconds. Alternatively, relative hydrolytic rates were determined using a fluorogenic cleavage assay (Ermolieff, J. et al., Biochemistry, 39: 12450-12456 (2000)). Initial rates from either method were expressed relative to uninhibited controls and the inhibition constant Ki was determined by a non-linear fit to a tight-binding model of competitive inhibition (Bieth, J., Bayer—Symposium V. Proteinase Inhibitors, pp 463-469, Spinger-Varlag, Berlin (1994)). Results are shown in
Sequence of memapsin 2 (P56817 46-501): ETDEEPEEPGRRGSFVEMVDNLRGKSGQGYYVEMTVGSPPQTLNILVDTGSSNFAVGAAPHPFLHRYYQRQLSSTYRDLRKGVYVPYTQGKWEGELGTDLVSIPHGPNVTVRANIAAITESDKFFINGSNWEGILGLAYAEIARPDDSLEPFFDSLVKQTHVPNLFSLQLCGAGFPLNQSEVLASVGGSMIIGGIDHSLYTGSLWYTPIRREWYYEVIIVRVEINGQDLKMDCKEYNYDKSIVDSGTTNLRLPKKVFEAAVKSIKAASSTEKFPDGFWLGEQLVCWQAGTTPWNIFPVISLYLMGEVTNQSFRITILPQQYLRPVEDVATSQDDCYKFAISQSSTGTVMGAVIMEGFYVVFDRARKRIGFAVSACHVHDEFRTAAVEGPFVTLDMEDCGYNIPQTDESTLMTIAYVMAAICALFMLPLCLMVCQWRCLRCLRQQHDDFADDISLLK
Inhibition of Memapsin 2. The potencies of compounds were determined by measurement of their inhibition of memapsin 2 catalytic activity toward a fluorescent substrate. Kinetic inhibition experiments were performed using the procedure as described in Ermolieff, et al. Biochemistry 39:12450-12456 (2000), the teachings of which are incorporated hereby in their entirety. Briefly, assays were performed at pH 4, 37° C., by pre-incubation of memapsin 2 enzyme with compound for 20 minutes. Activity measure was initiated by addition of a fluorogenic substrate FS-2 (Bachem Americas, Torrance, Calif.). Fluorescent signal increase over time was measured as a rate of hydrolysis of the peptide substrate. Inhibition of hydrolytic rate was expressed relative to uninhibited controls and fit to a model for tight-binding inhibitors (J. Bieth, in “Proteinase Inhibitors,” Bayer Symposium V, 463-469, 1974).

For test [2], the system named is Aβ production in Chinese hamster ovary cells that over-express human APP695 with the London and Swedish mutations. Put plainly: Cellular Aβ IC50 determination (Aβ40 sandwich ELISA). The format is cell-based. The conditions noted are these: Cricetulus griseus; Aβ40 content after 24 h incubation, CHO cells over-expressing human APP695. As to the method:
Cellular Aβ IC50 Determinations. The potency of compounds against memapsin 2 catalytic activity was determined in a cellular assay of Aβ production. […] Chinese hamster ovary cells that over-express human APP695 with the London and Swedish mutations were seeded in multi-well plates at 10% confluency. Compounds are dissolved in DMSO to concentrations near 1 mM, and diluted into culture media to a final concentration near 4 μM (final 0.4% DMSO). Compounds were diluted serially and applied to cells in multi-well plates 48 h after seeding. Incubation was continued in 5% CO2 at 37 degrees C. for 24 h. Aliquots were removed and assayed for Aβ40 content using a sandwich ELISA (BioSource International). Amount of Aβ40 over the range of concentration of compounds, relative to control incubations, were fit to a 4-parameter IC50 model.
In general terms: An ELISA detects its analyte on a solid surface through an enzyme-linked reagent.

In general, Ki refers to a measure of affinity in units of concentration, obtained from inhibition or displacement. Higher therefore signals lower affinity. One may read the IC50 as the concentration at which inhibition is half-maximal.

With `C[C@@H](NC(=O)c1cc(C(=O)N[C@@H](Cc2ccccc2)[C@H](O)C2Cc3ccccc3CN2)cc(N(C)S(C)(=O)=O)c1)c1ccccc1` (some centres unmarked) [GRL-0196-AL], the Ki in test [1] was more than 10000 nM.
In the case of `Cc1nc(CN(C)C(=O)c2cccc(C(=O)N[C@@H](Cc3ccccc3)[C@H](O)C3NCCN(Cc4ccccc4)C3=O)c2)cs1` (single isomer, unassigned) [Example 11a], in test [2], the concentration for half-maximal inhibition (IC50) is less than 10000 nM. For the same compound, the Ki in test [1] is less than 1000 nM.
`Cc1nc(CN(C)C(=O)c2cccc(C(=O)N[C@@H](Cc3ccccc3)[C@H](O)C3NCCN(Cc4ccccc4)C3=O)c2)cs1` (single isomer, unassigned) [Example 11b] came in with an inhibition constant Ki in test [1] of more than 10000 nM.
Still for that read-out and setting: as for `COc1cccc(C[C@@H]2CC[C@H]([C@@H](O)CNC(=O)c3cc(C(=O)N[C@H](C)c4ccccc4)cc(N(C)S(C)(=O)=O)c3)N2C(=O)OC(C)(C)C)c1` [Comparison compound A, reference compound], the figure is more than 1000 nM; as for `C[C@@H](NC(=O)c1cc(C(=O)N[C@@H](Cc2ccccc2)[C@H](O)C2NCCN(Cc3ccccc3)C2=O)cc(N(C)S(C)(=O)=O)c1)c1ccccc1` (some centres unmarked) [Example 10], less than 10000 nM.
The same measure, in the same setting: as for `Cc1csc([C@H]2CCCN2C(=O)c2cccc(C(=O)N[C@@H](Cc3ccccc3)[C@H](O)[C@@H]3NCCN(CC(C)C)C3=O)c2)n1` [GRL-0669AL], the figure is less than 1000 nM; as for `COc1cccc(CN2CCN[C@@H]([C@@H](O)[C@H](Cc3ccccc3)NC(=O)c3cccc(C(=O)N4CCC[C@@H]4c4nc(C)cs4)c3)C2=O)c1` [GRL-1069AL], less than 1000 nM.
The same measure, in the same setting: as for `COc1ccc(CN2CCN[C@@H]([C@@H](O)[C@H](Cc3ccccc3)NC(=O)c3cc(C(=O)N[C@H](C)c4ccccc4)cc(N(C)S(C)(=O)=O)c3)C2=O)cc1` [GRL-0889AL], the figure is less than 1000 nM.
The compound `COc1cccc(C[C@@H]2CC[C@H]([C@@H](O)CNC(=O)c3cc(C(=O)N[C@H](C)c4ccccc4)cc(N(C)S(C)(=O)=O)c3)N2)c1` [Comparison compound B, reference compound] returned a Ki in test [1] of more than 10000 nM.
`COc1cccc(CN2CCN[C@@H]([C@@H](O)[C@H](Cc3ccccc3)NC(=O)c3cc(C(=O)N[C@H](C)c4ccccc4)cc(N(C)S(C)(=O)=O)c3)C2=O)c1` [GRL-1079AL] displayed a Ki in test [1] of less than 1000 nM.
Still for that read-out and setting: next, `COc1ccc(CN2CCN[C@@H]([C@@H](O)[C@H](Cc3ccccc3)NC(=O)c3cccc(C(=O)N4CCC[C@@H]4c4nc(C)cs4)c3)C2=O)cc1` [GRL-0819AL]: less than 1000 nM; `CC(C)CN1CCN[C@@H]([C@@H](O)[C@H](Cc2ccccc2)NC(=O)c2cc(C(=O)N[C@H](C)c3ccccc3)cc(N(C)S(C)(=O)=O)c2)C1=O` [GRL-0849AL]: less than 1000 nM; `Cc1csc([C@H]2CCCN2C(=O)c2cccc(C(=O)N[C@@H](Cc3ccccc3)[C@H](O)[C@@H]3NCCN(Cc4ccccc4)C3=O)c2)n1` [GRL-0299]: less than 1000 nM.

The values are drawn from patent US8703947B2, “Compounds for treatment of Alzheimer's disease” (Purdue Research Foundation, priority 2008, dated 2014).
